According to EP0908457B1, “3-(1,2-benzisothiazol- and isoxazol-5-Y1)-2,4(1H,3H)-pyrimidinedione or thione and 3-(1,2-benzisothiazol- and isoxazol-5-y1)-4(3H)-pyrimidinone or thione herbicidal agents” (BASF AKTIENGESELLSCHAFT, priority 1997, dated 1999):

Assays:
Format in all cases: in vivo
[1] = system: Cyperus serotinus, Rottb.; assay: Preemergence weed control under flooded paddy conditions, CYPSE (Flatsedge); conditions: preemergence, rated three to four weeks after treatment; for herbicidal effect rating, CYPSE: meaning of each grade not given here
[2] = system: Monochoria vaginalis, Presl.; assay: Preemergence weed control under flooded paddy conditions, MOOVA (Monochoria); conditions: preemergence, flooded paddy, rated three to four weeks after treatment; for herbicidal effect rating, MOOVA: meaning of each grade not given here
[3] = system: Sagittaria pygmaea, L.; assay: Preemergence weed control under flooded paddy conditions, SAGPY (Arrowhead (Pygmaea)); conditions: preemergence, flooded paddy, rated three to four weeks after treatment; for herbicidal effect rating, SAGPY: meaning of each grade not given here
[4] = system: Echinochloa oryzoides (Ard.) Fritsch.; assay: Preemergence weed control under flooded paddy conditions, ECHORC (Watergrass (Calif.)); conditions: preemergence, flooded paddy, rated three to four weeks after treatment; for herbicidal effect rating, ECHORC: meaning of each grade not given here
[5] = system: Cyperus iria; assay: Preemergence weed control under flooded paddy conditions, CYPIR (Rice Flatsedge); conditions: preemergence, flooded paddy, rated three to four weeks after treatment; for herbicidal effect rating, CYPIR: meaning of each grade not given here

CC(=O)OCc1nsc2ccc(-n3c(=O)cc(C(F)(F)F)n(C)c3=O)cc12 [Example 32, 3-[3-(Hydroxymethyl)-1,2-benzisothiazol-5-yl]-1-methyl-6-(trifluoromethyl)-2,4(1H,3H)-pyrimidinedione, acetate ester]
herbicidal effect rating, CYPSE ([1]; 0.0313 kg/ha): 0.0
herbicidal effect rating, CYPSE ([1]; 0.0625 kg/ha): 0.0
herbicidal effect rating, CYPSE ([1]; 0.1250 kg/ha): 2.0
herbicidal effect rating, CYPSE ([1]; 0.2500 kg/ha): 7.0
herbicidal effect rating, MOOVA ([2]; 0.0313 kg/ha): 8.0
herbicidal effect rating, MOOVA ([2]; 0.0625 kg/ha): 9.0
herbicidal effect rating, MOOVA ([2]; 0.1250 kg/ha): 9.0
herbicidal effect rating, MOOVA ([2]; 0.2500 kg/ha): 9.0
herbicidal effect rating, SAGPY ([3]; 0.0313 kg/ha): 0.0
herbicidal effect rating, SAGPY ([3]; 0.0625 kg/ha): 0.0
herbicidal effect rating, SAGPY ([3]; 0.1250 kg/ha): 2.0
herbicidal effect rating, SAGPY ([3]; 0.2500 kg/ha): 9.0
herbicidal effect rating, ECHORC ([4]; 0.0313 kg/ha): 2.0
herbicidal effect rating, ECHORC ([4]; 0.0625 kg/ha): 3.5
herbicidal effect rating, ECHORC ([4]; 0.1250 kg/ha): 4.5
herbicidal effect rating, ECHORC ([4]; 0.2500 kg/ha): 7.5
herbicidal effect rating, CYPIR ([5]; 0.0313 kg/ha): 4.0
herbicidal effect rating, CYPIR ([5]; 0.0625 kg/ha): 6.0
herbicidal effect rating, CYPIR ([5]; 0.1250 kg/ha): 8.0
herbicidal effect rating, CYPIR ([5]; 0.2500 kg/ha): 9.0

Cn1c(C(F)(F)F)cc(=O)n(-c2ccc3snc(COC(=O)c4ccc([N+](=O)[O-])o4)c3c2)c1=O [Example 476, 2,4(1H,3H)-Pyrimidinedione, 3-[3-(hydroxymethyl)-1,2-benzisothiazol-5-yl]-1-methyl-6-(trifluoromethyl)-, 5-nitro-2-furoate (ester)]
CYPSE herbicidal rating ([1]; 0.0320 kg/ha): 0.0
CYPSE herbicidal rating ([1]; 0.1250 kg/ha): 3.0
CYPSE herbicidal rating ([1]; 0.2500 kg/ha): 6.0
MOOVA herbicidal rating ([2]; 0.0320 kg/ha): 5.0
MOOVA herbicidal rating ([2]; 0.0620 kg/ha): 6.0
MOOVA herbicidal rating ([2]; 0.1250 kg/ha): 6.0
MOOVA herbicidal rating ([2]; 0.2500 kg/ha): 9.0
SAGPY herbicidal rating ([3]; 0.0320 kg/ha): 0.0
SAGPY herbicidal rating ([3]; 0.0620 kg/ha): 2.0
SAGPY herbicidal rating ([3]; 0.1250 kg/ha): 4.0
SAGPY herbicidal rating ([3]; 0.2500 kg/ha): 5.0
ECHORC herbicidal rating ([4]; 0.0320 kg/ha): 0.0
ECHORC herbicidal rating ([4]; 0.0620 kg/ha): 2.0
ECHORC herbicidal rating ([4]; 0.1250 kg/ha): 2.0
ECHORC herbicidal rating ([4]; 0.2500 kg/ha): 3.0
CYPIR herbicidal rating ([5]; 0.0320 kg/ha): 4.0
CYPIR herbicidal rating ([5]; 0.0620 kg/ha): 4.0
CYPIR herbicidal rating ([5]; 0.1250 kg/ha): 9.0
CYPIR herbicidal rating ([5]; 0.2500 kg/ha): 9.0

Cn1c(C(F)(F)F)cc(=O)n(-c2ccc3snc(CS(=O)(=O)c4ccccc4)c3c2)c1=O [Example 393, 2,4(1H,3H)-Pyrimidinedione, 1-methyl-3-{3-[(phenylsulfonyl)methyl]-1,2-benzisothiazol-5-yl}-6-(trifluoromethyl)-]
herbicidal effect rating, CYPSE ([1]; Rate 0.0320 kg/ha): 0.0
herbicidal effect rating, CYPSE ([1]; Rate 0.0620 kg/ha): 0.0
herbicidal effect rating, CYPSE ([1]; Rate 0.1250 kg/ha): 3.0
herbicidal effect rating, CYPSE ([1]; Rate 0.2500 kg/ha): 6.0
herbicidal effect rating, MOOVA ([2]; Rate 0.0320 kg/ha): 7.0
herbicidal effect rating, MOOVA ([2]; Rate 0.0620 kg/ha): 8.0
herbicidal effect rating, MOOVA ([2]; Rate 0.1250 kg/ha): 8.0
herbicidal effect rating, MOOVA ([2]; Rate 0.2500 kg/ha): 9.0
herbicidal effect rating, SAGPY ([3]; Rate 0.0320 kg/ha): 0.0
herbicidal effect rating, SAGPY ([3]; Rate 0.1250 kg/ha): 3.0
herbicidal effect rating, SAGPY ([3]; Rate 0.2500 kg/ha): 4.0
herbicidal effect rating, ECHORC ([4]; Rate 0.0320 kg/ha): 2.0
herbicidal effect rating, ECHORC ([4]; Rate 0.0620 kg/ha): 4.0
herbicidal effect rating, ECHORC ([4]; Rate 0.1250 kg/ha): 4.0
herbicidal effect rating, ECHORC ([4]; Rate 0.2500 kg/ha): 9.0
herbicidal effect rating, CYPIR ([5]; Rate 0.0320 kg/ha): 0.0
herbicidal effect rating, CYPIR ([5]; Rate 0.0620 kg/ha): 3.0
herbicidal effect rating, CYPIR ([5]; Rate 0.1250 kg/ha): 3.0
herbicidal effect rating, CYPIR ([5]; Rate 0.2500 kg/ha): 6.0
